The source of these data is patent US10927078B2, “Modulators of indoleamine 2,3-dioxygenase” (GLAXOSMITHKLINE INTELLECTUAL PROPERTY DEVELOPMENT LIMITED, priority 2017, dated 2021).

For the first assay, the target named is indoleamine 2, 3-dioxygenase (IDO1) (Homo sapiens, UniProt P14902). As to the kind of experiment: PBMC IDO1 assay (kynurenine via mass spectrometry). The class given is cell-based.
Chain of indoleamine 2, 3-dioxygenase (IDO1) (P14902 whole entry): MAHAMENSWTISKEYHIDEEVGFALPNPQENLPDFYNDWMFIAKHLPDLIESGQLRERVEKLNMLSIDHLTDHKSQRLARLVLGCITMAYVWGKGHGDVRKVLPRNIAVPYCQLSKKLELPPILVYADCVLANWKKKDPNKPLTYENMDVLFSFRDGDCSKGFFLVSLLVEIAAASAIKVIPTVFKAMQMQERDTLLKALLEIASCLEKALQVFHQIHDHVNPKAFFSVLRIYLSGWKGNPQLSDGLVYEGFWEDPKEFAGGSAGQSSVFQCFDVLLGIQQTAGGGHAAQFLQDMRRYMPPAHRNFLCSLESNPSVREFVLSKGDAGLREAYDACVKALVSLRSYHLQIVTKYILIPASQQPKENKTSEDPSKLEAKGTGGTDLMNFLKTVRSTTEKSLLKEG
Conditions: not given
The protocol: Compounds of the present invention were tested via high-throughput cellular assays utilizing detection of kynurenine via mass spectrometry and cytotoxicity as end-points. For the mass spectrometry and cytotoxicity assays, human peripheral blood mononuclear cells (PBMC) (PB003F; AllCells®, Alameda, Calif.) were stimulated with human interferon-γ (IFN-γ) (Sigma-Aldrich Corporation, St. Louis, Mo.) and lipopolysaccharide from Salmonella minnesota (LPS) (Invivogen, San Diego, Calif.) to induce the expression of indoleamine 2, 3-dioxygenase (IDO1). Compounds with IDO1 inhibitory properties decreased the amount of kynurenine produced by the cells via the tryptophan catabolic pathway. Cellular toxicity due to the effect of compound treatment was measured using CellTiter-Glo® reagent (CTG) (Promega Corporation, Madison, Wis.), which is based on luminescent detection of ATP, an indicator of metabolically active cells.
In preparation for the assays, test compounds were serially diluted 3-fold in DMSO from a typical top concentration of 5 mM and plated at 0.5 μL in 384-well, polystyrene, clear bottom, tissue culture treated plates with lids (Greiner Bio-One, Kremsmünster, Austria) to generate 11-point dose response curves. Low control wells (0% kynurenine or 100% cytotoxicity) contained either 0.5 μL of DMSO in the presence of unstimulated (-IFN-γ/-LPS) PBMCs for the mass spectrometry assay or 0.5 μL of DMSO in the absence of cells for the cytotoxicity assay, and high control wells (100% kynurenine or 0% cytotoxicity) contained 0.5 μL of DMSO in the presence of stimulated (+IFN-γ/+LPS) PBMCs for both the mass spectrometry and cytotoxicity assays.
Frozen stocks of PBMCs were washed and recovered in RPMI 1640 medium (Thermo Fisher Scientific, Inc., Waltham, Mass.) supplemented with 10% v/v heat-inactivated fetal bovine serum (FBS) (Thermo Fisher Scientific, Inc., Waltham, Mass.), and 1× penicillin-streptomycin antibiotic solution (Thermo Fisher Scientific, Inc., Waltham, Mass.). The cells were diluted to 1,000,000 cells/mL in the supplemented RPMI 1640 medium. 50 μL of either the cell suspension, for the mass spectrometry assay, or medium alone, for the cytotoxicity assay, were added to the low control wells, on the previously prepared 384-well compound plates, resulting in 50,000 cells/well or 0 cells/well respectively. IFN-γ and LPS were added to the remaining cell suspension at final concentrations of 100 ng/ml and 50 ng/ml respectively, and 50 μL of the stimulated cells were added to all remaining wells on the 384-well compound plates. The plates, with lids, were then placed in a 37° C., 5% CO2 humidified incubator for 2 days.
Following incubation, the 384-well plates were removed from the incubator and allowed to equilibrate to room temperature for 30 minutes. For the cytotoxicity assay, CellTiter-Glo® was prepared according to the manufacturer's instructions, and 40 μL were added to each plate well. After a twenty minute incubation at room temperature, luminescence was read on an EnVision® Multilabel Reader (PerkinElmer Inc., Waltham, Mass.). For the mass spectrometry assay, 10 μL of supernatant from each well of the compound-treated plates were added to 40 μL of acetonitrile, containing 10 μM of an internal standard for normalization, in 384-well, polypropylene, V-bottom plates (Greiner Bio-One, Kremsmünster, Austria) to extract the organic analytes. Following centrifugation at 2000 rpm for 10 minutes, 10 μL from each well of the acetonitrile extraction plates were added to 90 μL of sterile, distilled H2O in 384-well, polypropylene, V-bottom plates for analysis of kynurenine and the internal standard on the RapidFire 300 (Agilent Technologies, Santa Clara, Calif.) and 4000 QTRAP MS (SCIEX, Framingham, Mass.). MS data were integrated using Agilent Technologies' RapidFire Integrator software, and data were normalized for analysis as a ratio of kynurenine to the internal standard. […]
`Cc1ncccc1OC(=O)N1CCC(C(CC(C)C)NC(=O)c2ccc(Cl)cc2)CC1` (centres unmarked) [Example 6, 2-methylpyridin-3-yl 4-{1-[(4-chlorophenyl)formamido]-3-methylbutyl}piperidine-1-carboxylate] showed an IC50 of 1.58 nM.

The compound `COCCC[C@@H](NC(=O)c1ccc(F)cc1)C1CCN(C(=O)Oc2cccnc2F)CC1` [Example 76, 2-fluoropyridin-3-yl 4-[(1R)-1-[(4-fluorophenyl)formamido]-4-methoxybutyl]piperidine-1-carboxylate] gave an IC50 of 158 nM.

Compound `CC(C)CC(NC(=O)c1ccc(F)cc1)C1CCN(C(=O)Oc2cncc(F)c2)CC1` (centres unmarked) [Example 45, 5-fluoropyridin-3-yl 4-{1-[(4-fluorophenyl)formamido]-3-methylbutyl}piperidine-1-carboxylate] gave an IC50 of 10 nM.

For the compound `COc1ncccc1OC(=O)N1CCC(C(CC(C)C)NC(=O)c2ccc(F)cc2)CC1` (centres unmarked) [Example 30, 2-methoxypyridin-3-yl 4-{1-[(4-fluorophenyl)formamido]-3-methylbutyl}piperidine-1-carboxylate], the IC50 was 5.01 nM.

The assay is the same for the next values; noted with them: human PBMC stimulated with IFN-γ and LPS, 2 days, kynurenine by mass spectrometry; recorded as pIC50; read-out: PBMC PXC50_ (converted).
Turning to `CC(C)CC(NC(=O)c1ccccc1)C1CCN(C(=O)Oc2ccccc2)CC1` (centres unmarked) [Example 39, phenyl 4-[3-methyl-1-(phenylformamido)butyl]piperidine-1-carboxylate], the IC50 was 7.94 nM.

`Cc1c(F)cccc1OC(=O)N1CCC([C@@H](C)NC(=O)c2ccccc2)CC1` [Example 56, 3-fluoro-2-methylphenyl 4-[(1R)-1-(phenylformamido)ethyl]piperidine-1-carboxylate]: the IC50 was 25.1 nM.

For `COCCC[C@@H](NC(=O)c1ccc(F)cc1)C1CCN(C(=O)Oc2cccc(F)c2C)CC1` [Example 42, 3-fluoro-2-methylphenyl 4-[(1R)-1-[(4-fluorophenyl)formamido]-4-methoxybutyl]piperidine-1-carboxylate], the IC50 is 7.94 nM.

As for `O=C(N[C@H](C1CC1)C1CCN(C(=O)Oc2ccccc2)CC1)c1ccc(Cl)s1` [Example 23, phenyl 4-[(R)-[(5-chlorothiophen-2-yl)formamido](cyclopropyl)methyl]piperidine-1-carboxylate], the IC50 is 3.98 nM.

As to `Cc1nccc(OC(=O)N2CCC([C@H](NC(=O)c3ccc(Cl)s3)C3CC3)CC2)c1C` [Example 7, 2,3-dimethylpyridin-4-yl 4-[(R)-[(5-chlorothiophen-2-yl)formamido](cyclopropyl)methyl]piperidine-1-carboxylate], the IC50 is 2 nM.

Take `COc1cc(OC(=O)N2CCC(C(NC(=O)c3ccc(F)cc3)C3CC3)CC2)ccn1` (centres unmarked) [Example 86, 2-methoxypyridin-4-yl 4-{cyclopropyl[(4-fluorophenyl)formamido]methyl}piperidine-1-carboxylate]: the IC50 was 631 nM.

In the case of `Cc1ncnc(C)c1OC(=O)N1CCC([C@@H](NC(=O)c2ccc(Cl)s2)C2CC2)CC1` [Example 112, (S)-4,6-dimethylpyrimidin-5-yl 4-((5-chlorothiophene-2-carboxamido)(cyclopropyl)methyl)piperidine-1-carboxylate], the IC50 was 10 nM.

For the compound `Cc1ncnc(C)c1OC(=O)N1CCC(C(CC(C)C)NC(=O)c2ccc(Cl)cc2)CC1` (centres unmarked) [Example 15, 4,6-dimethylpyrimidin-5-yl 4-{1-[(4-chlorophenyl)formamido]-3-methylbutyl}piperidine-1-carboxylate], the IC50 is 2.51 nM.

`O=C(NC(C1CC1)C1CCN(C(=O)Oc2ccccc2)CC1)c1ccc(Cl)s1` (centres unmarked) [Example 46, phenyl 4-{[(5-chlorothiophen-2-yl)formamido](cyclopropyl)methyl}piperidine-1-carboxylate]: the IC50 was 10 nM.

In the case of `CC(NC(=O)c1ccc(F)cc1)C1CCN(C(=O)Oc2ccccc2)CC1` (centres unmarked) [Example 74, phenyl 4-{1-[(4-fluorophenyl)formamido]ethyl}piperidine-1-carboxylate], the IC50 is 158 nM.

In the case of `O=C(NC(c1ccncc1)C1CCN(C(=O)Oc2ccccc2)CC1)c1ccccc1` (centres unmarked) [Example 77, phenyl 4-[(phenylformamido)(pyridin-4-yl)methyl]piperidine-1-carboxylate], the IC50 was 200 nM.

`CC(C)CC(NC(=O)c1ccc(Cl)cc1)C1CCN(C(=O)OCc2nccs2)CC1` (centres unmarked) [Example 64, (1,3-thiazol-2-yl)methyl 4-{1-[(4-chlorophenyl)formamido]-3-methylbutyl}piperidine-1-carboxylate]: the IC50 is 79.4 nM.

Turning to `O=C(NC(C1CC1)C1CCN(C(=O)Oc2cncnc2)CC1)c1ccc(Cl)s1` (stereo in doubt) [Example 115, (S)-pyrimidin-5-yl 4-((5-chlorothiophene-2-carboxamido)(cyclopropyl)methyl)piperidine-1-carboxylate], the IC50 was 50.1 nM.

Consider `O=C(NC(C1CC1)C1CCN(C(=O)Oc2ccncc2)CC1)c1ccc(F)cc1` (centres unmarked) [Example 81, pyridin-4-yl 4-{cyclopropyl[(4-fluorophenyl)formamido]methyl}piperidine-1-carboxylate], for which the IC50 is 398 nM.

For `Cc1nccc(OC(=O)N2CCC([C@H](NC(=O)c3ccc(Cl)cc3)c3ccccc3)CC2)c1C` [Example 20, 2,3-dimethylpyridin-4-yl 4-[(S)-[(4-chlorophenyl)formamido](phenyl)methyl]piperidine-1-carboxylate], the IC50 was 3.98 nM.

Take `O=C(NC(c1ccccc1)C1CCN(C(=O)Oc2ccccc2)CC1)c1ccc(C(F)(F)F)cn1` (centres unmarked) [Example 88, phenyl 4-[phenyl({[5-(trifluoromethyl)pyridin-2-yl]formamido})methyl]piperidine-1-carboxylate]: the IC50 was 631 nM.

Take `CC(C)CC(NC(=O)c1ccc(F)cc1)C1CCN(C(=O)Oc2ccnc(F)c2)CC1` (centres unmarked) [Example 55, 2-fluoropyridin-4-yl 4-{1-[(4-fluorophenyl)formamido]-3-methylbutyl}piperidine-1-carboxylate]: the IC50 was 20 nM.

Regarding `O=C(NC(c1ccccc1)C1CCN(C(=O)Oc2ccccc2)CC1)c1ccccc1` (centres unmarked) [Example 43, phenyl 4-[phenyl(phenylformamido)methyl]piperidine-1-carboxylate], the IC50 is 10 nM.

On to `Cc1nccc(OC(=O)N2CCC(C(CC(C)C)NC(=O)c3ccc(F)cc3)CC2)c1C` (centres unmarked) [Example 44, 2,3-dimethylpyridin-4-yl 4-{1-[(4-fluorophenyl)formamido]-3-methylbutyl}piperidine-1-carboxylate], for which the IC50 is 10 nM.

`Cc1c(F)cccc1OC(=O)N1CCC(C(NC(=O)c2ccc(F)cc2)C2CC2)CC1` (centres unmarked) [Example 61, 3-fluoro-2-methylphenyl 4-{cyclopropyl[(4-fluorophenyl)formamido]methyl}piperidine-1-carboxylate]: the IC50 is 63.1 nM.

As to `C#Cc1ccc(C(=O)NC(c2ccccc2)C2CCN(C(=O)OC(C)(C)C)CC2)cc1` (centres unmarked) [Example 78, tert-butyl 4-{[(4-ethynylphenyl)formamido](phenyl)methyl}piperidine-1-carboxylate], the IC50 is 251 nM.

Take `Cc1nccc(OC(=O)N2CCC(C(CC(C)C)NC(=O)c3ccc(Cl)cc3)CC2)c1C` (centres unmarked) [Example 35, 2,3-dimethylpyridin-4-yl 4-{1-[(4-chlorophenyl)formamido]-3-methylbutyl}piperidine-1-carboxylate]: the IC50 was 6.31 nM.
